PMC5648829 (Scientific Reports, 2017)
Where a SMILES comes first, the peptide text is derived from it.

Experiments:
[1] = system: sputum neutrophils; set-up: method as in PMID 27806191; conditions: cystic fibrosis patients; cited from earlier work
[2] = system: asthma bronchial allergen challenge; set-up: method as in PMID 25018015; conditions: asthma bronchial allergen challenge trial; cited from earlier work
[3] = PGP degradation assay in BALF ex-vivo (LC-MS/MS); type: in vitro ADME, mouse
Procedure: 200 µl of BALF were spiked with PGP and Ac-PGP at the final concentration of 10 nM. […] After incubation, samples were filtered (Amicon Ultra-0.5, Membrane Ultracel-30, PMNL 30 kD) by centrifugation (3 min at 10,000 × g). Filtered samples were transferred to vials for liquid chromatography tandem mass spectrometry (LC-MS/MS) analysis. The LC system consisted of an Acquity UPLC I-Class interfaced with a Xevo-TQS triple quadruple MS (Waters). […] PGP was monitored with MRM m/z transitions of 270.1 > 173.1 (quantifier) and 270.1 > 70.1 and 270.1 > 116.1 (qualifiers). Ac-PGP was monitored with m/z transitions of 312.2 > 112.1 (quantifier) and 312.2 > 116.1 and 312.2 > 140.1 (qualifiers).

[4] = system: neutrophil influx into dorsal air-pouch; assay: Air-pouch model of acute inflammation; type: in vivo, mouse; conditions: for PGP concentration in air-pouch exudate: PGP 500 μg/mouse
Procedure: Air-pouches were formed by subcutaneous injection of 5 ml air through a 0.22 μm filter on the backs of female LTA4H KO or wt mice. The patency of the cavity was maintained by a further 3 ml injection on day 3. Six days after the initial injection of air, LPS at 10 µg/animal and PGP, Ac-PGP, at different concentrations up to 500 µg/animal were injected into the air pouches. […] An incision was made on the top of the pouch and the injected lavage fluid pipetted out into an eppendorf tube. An aliquot of air pouch lavage fluid was used to determine total cell counts on an Advia 120® Haematology Analyser. To determine differential cell counts, cytospins were prepared for all pouch fluid samples. The cytospins were air dried prior to staining with DiffQwik differential staining solutions. Differential cell counts were performed manually (x200 magnification) to determine the percentage of neutrophil and non-neutrophil cell populations in each sample.

[5] = system: neutrophil influx into lungs; assay: Stimulation of lungs with PGP and Ac-PGP (intra-tracheal); type: in vivo, mouse; conditions: PGP up to 500 μg intra-tracheal, wt or LTA4H KO mice, 24 h
Procedure: PGP or Ac-PGP in increasing doses up to 500 ug per mouse were applied by intra-tracheal administration in 50 µl PBS to female LTA4H KO or wild type mice. After 24 h, the mice were euthanized and BALF was collected by cannulating the trachea with a catheter and lavaging the lungs 3 times with 0.4 ml cold PBS. The lavage fluid was then centrifuged and the cells analyzed by flow cytometry. Cell supernatants were used for analysis of MPO and cytokine content in BALF.

[6] = system: human neutrophils; assay: Human neutrophil shape change assay; type: cell-based; conditions: up to 100 μM
Procedure: Neutrophils were purified by Ficoll density gradient centrifugation from human blood and incubated with graded concentrations of PGP, Ac-PGP or the known neutrophil chemoattractant GROα in assay buffer containing BSA (0.1%) in PBS for 10 min at 37 °C, 5% CO2 and 90% humidity. Cells were then fixed and shape change analyzed by flow cytometry.

[7] = system: human neutrophils; assay: Human neutrophil chemotaxis assay; type: cell-based; conditions: graded concentrations up to mM range, 90 min at 37 °C
Procedure: Purified human neutrophils were labeled with calcein-AM (Fluka, Buchs, Switzerland). Test compounds (PGP, Ac-PGP, RTR, and Ac-RTR) or IL-8 (Sigma) as positive chemoattractant control were diluted in RPMI containing BSA (0.1%) and added at graded concentrations into the wells of a 96-well ChemoTX plate (3.2 mm diameter, 5 µm pore size; NeuroProbe, Gaithersburg, MD). Labeled cells (50,000 per well) were added onto the filters above the wells that received the test compounds. Plates were incubated for 90 min at 37 °C. The filters were removed and fluorescence in the receiving wells was measured using a SpectraMAX Gemini EM instrument (Molecular Devices, Sunnyvale, CA; λex = 485 nm; λem = 538 nm). The chemotactic index was measured as the ratio of fluorescence in the test wells and in control (buffer only) wells.

[8] = system: human neutrophils; assay: Human neutrophil calcium flux assay; type: cell-based; conditions: up to mM concentrations
Procedure: Purified human neutrophils were incubated in Calcium 5 loading buffer (Molecular Devices) containing Probenecid (2.5 mM, SIGMA) at 37 °C, 5% CO2 and 90% humidity for 1 h. 20 µl of the cell suspension were then transferred to a black 384-well plate with clear bottom and centrifuged at 100 g for 4 min. Test compounds PGP, Ac-PGP and fMLP (SIGMA) were prepared at graded concentrations in HBSS containing HEPES (20 mM). Fluorescence was measured in FLIPR Tetra reader (Molecular Devices) every second before and after the addition of 5 µl of compounds dilutions. The calculated F index is the difference between the maximum signal and the average baseline signal, divided by the average baseline signal.

[9] = system: human neutrophils; assay: ROS generation in human neutrophils; type: cell-based; conditions: up to mM concentrations
Procedure: Purified human neutrophils were plated in RPMI + FCS (5%) in 96-well cell culture plates (100,000 cells/well). Dihydrorhodamine 123 (SIGMA) was added at a final concentration of 3 µM together with PGP, Ac-PGP and fMLP (SIGMA) at graded concentrations and incubated for 30 min at 37 °C, 5% CO2 and 90% humidity. […] Amount of generated ROS is given as GMFI (sample)/GMFI (unstimulated control).

[10] = system: human neutrophils; set-up: method as in earlier work; conditions: ref 27 Haddox et al.; read-out: EC50 chemotaxis of human neutrophils; cited from earlier work
[11] = molecular target: T1, LTA4H (Homo sapiens, UniProt P09960); assay: PGP degradation assay in human blood; type: cell-based; set-up: Fresh blood was collected in heparinized tubes by venipuncture from volunteers; from tissue; host or cells: fresh human whole blood from volunteers, diluted 1:3 in RPMI; conditions: untreated and LPS stimulated blood, 24 h at 37 °C
T1 sequence (P09960 1-611): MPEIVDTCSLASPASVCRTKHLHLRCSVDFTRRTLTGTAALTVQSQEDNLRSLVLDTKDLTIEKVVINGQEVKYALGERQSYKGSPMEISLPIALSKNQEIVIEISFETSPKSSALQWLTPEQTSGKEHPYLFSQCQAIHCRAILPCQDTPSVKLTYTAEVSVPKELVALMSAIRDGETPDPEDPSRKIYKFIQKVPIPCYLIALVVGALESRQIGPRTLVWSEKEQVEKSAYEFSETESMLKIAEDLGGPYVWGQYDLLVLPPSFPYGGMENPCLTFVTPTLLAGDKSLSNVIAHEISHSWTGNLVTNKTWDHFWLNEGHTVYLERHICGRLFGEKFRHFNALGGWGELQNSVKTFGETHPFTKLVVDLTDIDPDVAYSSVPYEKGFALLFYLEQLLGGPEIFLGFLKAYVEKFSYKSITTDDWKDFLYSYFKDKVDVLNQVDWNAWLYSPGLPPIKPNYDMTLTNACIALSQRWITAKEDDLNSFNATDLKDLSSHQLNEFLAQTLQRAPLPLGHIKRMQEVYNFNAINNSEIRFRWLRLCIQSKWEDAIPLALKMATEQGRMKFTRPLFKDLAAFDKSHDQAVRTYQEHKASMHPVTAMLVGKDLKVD
Procedure: Fresh blood was collected in heparinized tubes by venipuncture from volunteers from the Novartis Blood Donor Center, Basel. The blood was diluted 1:3 in Roswell Park Memorial Institute (RPMI) containing HEPES (0.025 M). […] PGP and LPS were added at final concentrations of 2 µg/ml each and incubated up to 24 h at 37 °C, 5% CO2 and 90% humidity before samples were collected for LC-MS/MS analysis.

O=C(O)c1ccc(CN2C[C@@H]3C[C@H]2CN3Cc2ccc(Oc3ccc(-c4ncco4)cc3)cc2)cc1 [Acebilustat]
reduction of sputum neutrophils [1]: 65%

CC(=O)NC1C[C@H]2CC[C@@H](C1)N2Cc1ccc(Oc2nc3ncccc3s2)cc1 (some centres unmarked) [JNJ-40929837]
clinical efficacy [2]: did not show efficacy

O=C(NCC(=O)N1CCC[C@H]1C(=O)O)[C@@H]1CCCN1 [PGP, H-Pro-Gly-Pro] (H-Pro-Gly-Pro-OH)
PGP level after spiking into BALF ([3]; BALF from LPS challenged wt mice, PGP 10 nM, 4 h at 37 °C): undetectable levels | PGP still present ([3]; exudate (BALF) of LTA4H KO mice, after 24 h): over 80% | cell influx in air-pouch ([4]; 500 μg PGP, LTA4H KO mice, 24 h): failed to detect significant cell influx | PGP concentration in air-pouch exudate ([4]; LTA4H KO mice, 1 h after injection): approximately 1 µg/ml | PGP concentration in air-pouch exudate ([4]; LTA4H KO mice, 4 h and 24 h after injection): no PGP was detectable | cell numbers (neutrophil influx) in air-pouch ([4]; PGP up to 500 μg per air-pouch, Balb/c mice, 4 h): did not show elevated cell numbers compared to saline control | neutrophil influx in air-pouch ([4]; mice pre-treated with 30 mg/kg DG-051 before PGP injection, 4 h): unable to detect neutrophil influx | influx of neutrophils by flow cytometry of BALF cells [5]: neither able to detect influx of neutrophils | myeloperoxidase (MPO) in BALF ([5]; versus PBS control): nor elevation of myeloperoxidase (MPO) beyond the PBS control | neutrophil shape change response [6]: no response | neutrophil chemotaxis [7]: no significant increase in chemotaxis | induction of Ca2+ flux [8]: neither PGP nor Ac-PGP induced | ROS production [9]: neither PGP nor Ac-PGP induced | EC50 [10]: 15 mM | Degradation of PGP in human blood [11]: complete disappearance
